The results in this text go back to publication PMC9269301, “Phytochemical Analysis, Antioxidant, Antimicrobial, and Cytotoxic Activity of Different Extracts of Xanthoparmelia stenophylla Lichen from Stara Planina, Serbia” (Plants, 2022).

≈ marks a conversion by molar mass, not a printed value. Read-outs that look alike come from different tables or passages of the source.

For assay [1], the system named is B. cereus (isolate). Briefly: Microdilution with resazurin, antibacterial. The class given is cell-based, Bacillus cereus. On the procedure: (§1) The tested methanol, acetone, and n-hexane extracts, as well as the component (usnic acid) of X. stenophylla, were dissolved in 10% dimethyl sulfoxide (DMSO) and then diluted into the nutrient liquid medium. DMSO was obtained from Acros Organics (Fair Lawn, NJ, USA). Resazurin was obtained from Alfa Aesar GmbH & Co. (KG, Karlsruhe, Germany).
(§2) The antimicrobial activity of the extracts and components was tested against 19 microorganisms. The experiment involved 15 strains of bacteria (i.e., 6 standard strains: Staphylococcus aureus ATCC 6538, Bacillus subtilis ATCC 6633, Proteus mirabilis ATCC 12453, Pseudomonas aeruginosa ATCC 27853, Klebsiella pneumoniae ATCC 70063, and Escherichia coli ATCC 25922; 9 isolates: Staphylococcus aureus, Escherichia coli, Salmonella enterica, Salmonella Typhimurium, Proteus mirabilis, Klebsiella pneumoniae, Pseudomonas aeruginosa, Bacillus subtilis, and Bacillus cereus). In addition, four fungal strains (i.e., two standard strains: Candida albicans ATCC 10231 and Aspergillus niger ATCC 16888; two isolates: Saccharomyces cerevisiae and Candida albicans) were tested. All isolates were a generous gift from the Institute of Public Health, Kragujevac. The other microorganisms were provided from the collection held by the Microbiology Laboratory Faculty of Science, University of Kragujevac.
(§3) The bacterial suspensions were prepared by the direct colony method. The turbidity of the initial suspension was adjusted using a densitometer (DEN-1, BioSan, Riga, Latvia). When adjusted to the turbidity of the 0.5 McFarland’s standard (Andrews, 2005) the bacteria suspension contained approximately 10^8 colony-forming units (CFU)/mL, and the suspension of yeast contained 10^6 CFU/mL; 1:100 dilutions of the initial suspension were additionally prepared in sterile 0.85% saline. The suspensions of fungal spores were prepared by gentle stripping of spores from slopes with growing mycelia. The resulting suspensions were 1:1000 diluted in sterile 0.85% saline.
(§4) Antimicrobial activity was tested by determining the minimum inhibitory concentrations (MICs) and minimum microbicidal concentrations (MBCs) using the microdilution plate method with resazurin [56]. The 96-well plates were prepared by dispensing 100 μL of Mueller–Hinton broth for bacteria and Sabouard broth for fungi into each well. A 10 μL aliquot from the stock solution of the tested extract or component was added to the first row of the plate. Then, two-fold serial dilutions were performed using a multichannel pipette. The obtained concentration range was from 10 to 0.08 mg/mL. The method is described in detail in [76].
(§5) Each test included growth control and sterility control.
(§6) Minimum microbicidal concentrations were determined by plating 10 μL of samples from wells where no indicator color change or no mycelia growth was recorded on a nutrient agar medium. At the end of the incubation period, the lowest concentration with no growth (no colony) was defined as the minimum microbicidal concentration.

In assay [2] the test system is S. aureus ATCC 6538 biofilm. Description: Antibiofilm activity (biofilm formation, crystal violet). Type of assay: cell-based, Staphylococcus aureus. The conditions noted are these: S. aureus ATCC 6538, 37 °C, 48 h. On the procedure:
(§7) The ability of S. aureus ATCC 6538 and P. aeruginosa to form biofilms was assayed as described by O’Toole et al. with some modifications. Briefly, the tissue culture of 96-well microtiter plates (Sarstedt, Germany) were prepared by dispensing 100 µL of nutrient broth (i.e., Mueller–Hinton broth) into each well. Ten microliters of spore suspension (10^8 colony-forming units (CFU)/mL) was added into each row. […] Biofilms formed by adherent cells in 96-well microtiter plates were stained with crystal violet (0.1% w/v; Fluka AG, Buchs, Switzerland) and incubated at room temperature for 20 min. Excess stain was rinsed off by thorough washing with deionized water and then with […] of 96% ethanol. Optical densities (ODs) of stained adherent bacteria were determined with an enzyme-linked immunosorbent assay (ELISA) plate reader (RT-2100C, Rayto, Shenzhen, China) at a 630 nm wavelength. Only broth served as a control to check sterility and nonspecific binding of media. To compensate for background absorbance, OD readings from sterile medium, fixative, and dye were averaged and subtracted from all test values. All tests were performed in duplicate. The tissue culture of 96-well microtiter plates (Sarstedt, Nümbrecht, Germany) were prepared by dispensing 100 µL of nutrient broth (i.e., Mueller–Hinton broth) into each well. From the stock solution of the tested extracts or components (concentration: 20 mg/mL), 100 µL was added to the first row of the microtiter plate. Two-fold serial dilutions were then made using a multichannel pipette, following which 10 µL of fresh bacterial suspension was added to each well. The inoculated microtiter plates were incubated at 37 °C for 48 h. After incubation, the content of each well was gently removed by tapping the microtiter plates. […] Biofilms formed by adherent cells in 96-well microtiter plates were stained with crystal violet (0.1% w/v; Fluka AG, Switzerland) and incubated at room temperature for 20 min. Excess stain was rinsed off by thorough washing with deionized water and then with […] densities (ODs) of stained adherent bacteria were determined with an enzyme-linked immunosorbent assay (ELISA) plate reader at a 630 nm wavelength. […] Only broth or broth with extracts served as a control to check the sterility and nonspecific binding of media. To compensate for background absorbance, OD readings from sterile medium, extracts, fixative, and dye were averaged and subtracted from all test values. All tests were performed in duplicate.

Assay [3] relates to S. aureus (isolate). Description: Microdilution with resazurin, antibacterial. Type of assay: cell-based, Staphylococcus aureus. On the procedure:
as §1, §2, §3, §4, §5, §6

Assay [4] relates to S. aureus ATCC 6538. Briefly: Microdilution with resazurin, antibacterial. The class given is cell-based, Staphylococcus aureus. How it is done:
as §1, §2, §3, §4, §5, §6

The test system of assay [5] is P. aeruginosa biofilm. Description: Antibiofilm activity (biofilm formation, crystal violet). The class given is cell-based, Pseudomonas aeruginosa. The conditions noted are these: P. aeruginosa, 37 °C, 48 h. On the procedure:
as §7

Assay [6] deals with E. coli ATCC 25922. Briefly: Microdilution with resazurin, antibacterial. Type of assay: cell-based, Escherichia coli. On the procedure:
as §1, §2, §3, §4, §5, §6
In general terms: Broth dilution looks for growth in wells or tubes with falling amounts of substance.

For assay [7], the system named is E. coli (isolate). Briefly: Microdilution with resazurin, antibacterial. Type of assay: cell-based, Escherichia coli. On the procedure:
as §1, §2, §3, §4, §5, §6

The test system of assay [8] is S. enterica (isolate). Description: microbe, parasite or virus in culture. Type of assay: cell-based, Salmonella enterica. How it is done: as §1, §2, §3, §4, §5, §6
The test system of assay [9] is S. Typhimurium (isolate). Briefly: Microdilution with resazurin, antibacterial. Type of assay: cell-based, Salmonella Typhimurium. On the procedure: as §1, §2, §3, §4, §5, §6
The test system of assay [10] is K. pneumoniae ATCC 70063. Briefly: Microdilution with resazurin, antibacterial. The class given is cell-based, Klebsiella pneumoniae. On the procedure: as §1, §2, §3, §4, §5, §6
Assay [11] concerns K. pneumoniae (isolate). Description: Microdilution with resazurin, antibacterial. Type of assay: cell-based, Klebsiella pneumoniae. On the procedure: as §1, §2, §3, §4, §5, §6
Assay [12] concerns B. subtilis ATCC 6633. Briefly: Microdilution with resazurin, antibacterial. Type of assay: cell-based, Bacillus subtilis. How it is done: as §1, §2, §3, §4, §5, §6
Where [13] appears, read: S. enterica, extracts and usnic acid.

For the molecule `CN(C)[C@@H]1C(O)=C(C(N)=O)C(=O)[C@@]2(O)C(O)=C3C(=O)c4c(O)cccc4[C@@](C)(O)[C@H]3C[C@@H]12` [TC, tetracycline], the MBC was 0.5 µg/mL (≈ 1.13 µM) in assay [1] (Bacillus cereus, antibiotics, read-out: MBC); under 0.06 µg/mL in [3] (Staphylococcus aureus, antibiotics, read-out: MBC); 6 µg/mL (≈ 13.5 µM) in [4] (Staphylococcus aureus, ATCC6538, antibiotics, read-out: MBC); 6 µg/mL (≈ 13.5 µM) in [6] (Escherichia coli, ATCC25922, antibiotics, read-out: MBC); 6 µg/mL (≈ 13.5 µM) in [7] (Escherichia coli, antibiotics, read-out: MBC); 2 µg/mL (≈ 4.5 µM) in assay [8] (Salmonella enterica). In addition, the MBC in assay [9] (Salmonella enterica, antibiotics, read-out: MBC) came to 2 µg/mL (≈ 4.5 µM); in [10] (Klebsiella pneumoniae, ATCC70063, antibiotics, read-out: MBC), 64 µg/mL (≈ 144 µM); in assay [11] (Klebsiella pneumoniae, antibiotics, read-out: MBC), 32 µg/mL (≈ 72 µM); in [12] (Bacillus subtilis, ATCC6633, antibiotics, read-out: MBC), 0.37 µg/mL (≈ 0.833 µM). Further, the MIC in [1] (Bacillus cereus, antibiotics, read-out: MIC) is 0.25 µg/mL (≈ 0.563 µM); in assay [3] (Staphylococcus aureus, antibiotics, read-out: MIC), under 0.06 µg/mL; in [4] (Staphylococcus aureus, ATCC6538, antibiotics, read-out: MIC), 3 µg/mL (≈ 6.75 µM); in [6] (Escherichia coli, ATCC25922, antibiotics, read-out: MIC), 4 µg/mL (≈ 9 µM); in [7] (Escherichia coli, antibiotics, read-out: MIC), 2 µg/mL (≈ 4.5 µM); in assay [10] (Klebsiella pneumoniae, ATCC70063, antibiotics, read-out: MIC), 4 µg/mL (≈ 9 µM). The MIC in assay [11] (Klebsiella pneumoniae, antibiotics, read-out: MIC) was determined as 4 µg/mL (≈ 9 µM); in [12] (Bacillus subtilis, ATCC6633, antibiotics, read-out: MIC), 0.25 µg/mL (≈ 0.563 µM). In addition, the “BIC90 (biofilm inhibitory concentration, 90% reduction of biofilm coverage)” value in assay [2] and in assay [5] was over 1000 µg/mL throughout. The IC50 in [2] (Staphylococcus aureus, ATCC6538, read-out: BIC50 (biofilm inhibitory concentration, 50% reduction of biofilm coverage)) was 249 µg/mL (≈ 560 µM); in [5] (Pseudomonas aeruginosa, read-out: BIC50 (biofilm inhibitory concentration, 50% reduction of biofilm coverage)), over 1000 µg/mL.
Turning to usnic acid, the MBC in assay [1] (extracts and usnic acid) was under 80 µg/mL; in assay [3] (extracts and usnic acid), 156 µg/mL; in assay [4] (extracts and usnic acid) it was 625 µg/mL; in assay [6] (extracts and usnic acid), under 10000 µg/mL; in assay [7] (extracts and usnic acid), under 10000 µg/mL; in assay [8] (setting [13]), under 10000 µg/mL. The MBC in assay [9] (extracts and usnic acid) is under 10000 µg/mL; in assay [10] (extracts and usnic acid), under 10000 µg/mL; in assay [11] (extracts and usnic acid) it was under 10000 µg/mL; in assay [12] (extracts and usnic acid) it was under 80 µg/mL. Further, the MIC in assay [1] (extracts and usnic acid) is under 80 µg/mL; in assay [3] (extracts and usnic acid) it was 156 µg/mL; in assay [4] (extracts and usnic acid), 312.5 µg/mL; in [6] (extracts and usnic acid), under 10000 µg/mL; in assay [7] (extracts and usnic acid) it was under 10000 µg/mL; in assay [8] (setting [13]) it was under 10000 µg/mL. In addition, the MIC in [9] (extracts and usnic acid) is under 10000 µg/mL; in assay [10] (extracts and usnic acid), under 10000 µg/mL; in assay [11] (extracts and usnic acid), under 10000 µg/mL; in assay [12] (extracts and usnic acid), under 80 µg/mL. The “BIC50 (biofilm inhibitory concentration, 50% reduction of biofilm coverage)” value is 1750 µg/mL in assay [2], > 10,000 µg/mL in [5] and <10,000 µg/mL in assay [5] (listed as UA). In addition, the “BIC90 (biofilm inhibitory concentration, 90% reduction of biofilm coverage)” value was 5000 µg/mL in assay [2], > 10,000 µg/mL in assay [5] and <10,000 µg/mL in assay [5] (listed as UA).
